{"source": "paper PMC9532703", "about": "“A novel small molecule RK-019 inhibits FGFR2-amplification gastric cancer cell proliferation and induces apoptosis in vitro and in vivo” (Frontiers in Pharmacology, 2022)", "key": {"KATO III cells [1]": {"tested_on": "KATO III cells", "experiment": "Cell cycle analysis by flow cytometry (PI staining)", "format": "cell-based", "conditions": "100 nM, 24 h", "protocol": "Cell cycle and apoptosis assay were both measured by flow cytometry (FCM). The data were analyzed by the NovoExpress software (v1.4.0, Agilent, Santa Clara, CA, United States). For cell cycle assay, the cells were treated by different concentrations of RK-019 for 24 h, then were harvested and washed twice with cold phosphate buffered solution (PBS), followed by fixed with 75% ethanol overnight. Before test, the cells were washed twice with cold PBS and stained with PI stanning solution using cell cycle detecting kit (KGA512, KeyGEN, Nanjing, China), and then measured by FCM. For apoptosis assay, the cells were harvested after treated with different concentrations of RK-019 for 24 h, and stained with a PE Annexin V Apoptosis Detection Kit according to the manufacturer’s protocol followed by detected using FCM."}, "KATO III cells [2]": {"tested_on": "KATO III cells", "experiment": "Apoptosis analysis by flow cytometry (Annexin V-PE/7-AAD)", "format": "cell-based", "conditions": "72 h", "protocol": "(§1) Cell cycle and apoptosis assay were both measured by flow cytometry (FCM). The data were analyzed by the NovoExpress software (v1.4.0, Agilent, Santa Clara, CA, United States). For cell cycle assay, the cells were treated by different concentrations of RK-019 for 24 h, then were harvested and washed twice with cold phosphate buffered solution (PBS), followed by fixed with 75% ethanol overnight. Before test, the cells were washed twice with cold PBS and stained with PI stanning solution using cell cycle detecting kit (KGA512, KeyGEN, Nanjing, China), and then measured by FCM. […]"}, "SNU-16 cells [3]": {"tested_on": "SNU-16 cells", "experiment": "Apoptosis analysis by flow cytometry (Annexin V-PE/7-AAD)", "format": "cell-based", "conditions": "SNU-16, 72 h", "protocol": "as §1"}, "In vivo PK assay": {"experiment": "In vivo PK assay", "parameters": "species or system Sprague-Dawley rats", "conditions": "rats", "protocol": "All animal experiments in this study have been approved by the Institutional Animal Care and Treatment Committee of Sichuan University in China and were carried out in accordance with the approved guidelines. Sprague-Dawley rats (weight 180–200 g, Beijing HJF bioscience, Beijing, China) were used in this experiment and maintained in a specific-pathogen-free (SPF) condition facility. RK-019 was dissolve in ethanol first, followed by mixed with Kolliphor EL, then filled with saline to the calculated volume. The formula was 12.5% ethanol, 12.5% Kolliphor EL, and 75% saline. RK-019 was administrated via i. v. 3 mg/kg or p. o. 30 mg/kg. After 5, 10, 15, 30, 60, 120, 240, 360, 600, and 1,440 min of administration, the blood samples were collected. Plasma fraction was obtained by centrifuged blood, then deproteinized with methanol containing an internal standard. The compound concentrations of the target compound in the supernatant were measured by liquid chromatography–mass spectrometry/mass spectrometry (LC-MS/MS)."}, "[4]": {"tested_on": "FGFR2 phosphorylation and downstream proteins in KATO III cells", "experiment": "Western blot of FGFR signal proteins", "format": "cell-based", "conditions": "24 h", "protocol": "(§2) The cells treated with RK-019 at indicated concentration for 24 h were harvested and lysed in 1× RIPA buffer (20e188, MilliporeSigma, Burlington, MA, United States), which contained protease inhibitor cocktail (B14001, Bimake, Houston, TX, United States) and phosphatase inhibitor cocktail (B15001, Bimake), for 30 min and equalized by concentration of the total protein before loading. Using sodium dodecyl sulphate - polyacrylamide gel electrophoresis (SDS-PAGE) to separate the protein sample and transfer to PVDF membranes (ISEQ00010, MilliporeSigma). The membranes were incubated with relevant primary antibody and corresponding HRP-labeled secondary antibody. Then, chemiluminescence was used to detect target bands. ImageJ software were used to make the gradation analysis.\n(§3) In western blot, results analysis of relative phosphorylation quantification level, data were firstly calculated according to the following formular: Protein Relative phosphorylation data = Gp/Gup. Gp means the gradation level of target phosphorylation protein band and Gup means the gradation level of target total protein band. Then, the relative phosphorylation level can be calculated by the following formular: Protein Relative expression level = Pt/Pc ×100%. Pt means the relative phosphorylation data or target group and Pc means the relative phosphorylation data of control group."}, "[5]": {"tested_on": "FGFR2 phosphorylation and downstream proteins in SNU-16 cells", "experiment": "Western blot of FGFR signal proteins", "format": "cell-based", "protocol": "as §2, §3"}, "KATO III cells [6]": {"tested_on": "KATO III cells", "experiment": "Edu staining assay", "format": "cell-based", "conditions": "100 nM, 24 h", "protocol": "(§4) For Edu staining assay, 1×10^5 cells were seeded in 24-well plates. RK-019 and DMSO were treated as soon as the cells seeded into the plates. After 24 h, the cells were incubated with the medium contained 10 µM Edu for 2 h. After that, the cells were collected and fixated to slide, and then stained with the Cell-Light EdU Apollo488 In Vitro Kit (C10310, Ribobio, Guangzhou, China). After staining, the samples were photographed and analyzed by the ImageJ software (v1.53a, Wayne Rasband, United States)."}, "SNU-16 cells [7]": {"tested_on": "SNU-16 cells", "experiment": "Edu staining assay", "format": "cell-based", "conditions": "SNU-16, 100 nM, 24 h", "protocol": "as §4"}, "KATO III cells [8]": {"tested_on": "KATO III cells", "experiment": "Cell counting assay (trypan blue)", "format": "cell-based", "conditions": "KATO III, 5, 10, and 100 nM, 9 days", "protocol": "(§5) SNU-16 and KATO III were seeded in 6-well plated with 1×10^5 per well. RK-019 was treated as soon as the cells seeded in the 6-well plates. After indicated time, the images were captured using an inverted microscope. Then, the cells in the captured well were resuspended and live cell numbers were determined by the trypan blue (BL627A, Biosharp, Hefei, China) method."}, "SNU-16 cells [9]": {"tested_on": "SNU-16 cells", "experiment": "Cell counting assay (trypan blue)", "format": "cell-based", "conditions": "SNU-16, 10 and 100 nM, 9 days", "protocol": "as §5"}, "[10]": {"conditions": "Sprague-Dawley, rat, plasma, iv, 3 mg/kg i.v"}, "[11]": {"conditions": "Sprague-Dawley, rat, plasma, po, 30 mg/kg p.o"}}}
{"smiles": "COc1cc(OC)cc(N(CCN[C@H](C)CO)c2ccc3ncc(-c4cnn(C)c4)c(=O)n3c2)c1", "note": "[RK-019, (R)-7-((3,5-dimethoxyphenyl) (2-((1-hydroxypropan-2-yl)amino)ethyl)amino)-3-(1-methyl-1H-pyrazol-4-yl)-4H-pyrido [1,2-a]pyrimidin-4-one]", "values": [{"measurement": "G0/G1 proportion", "setting": "KATO III cells [1]", "result": 67.88, "unit": "%"}, {"measurement": "population of apoptotic cells (early and late apoptotic cells)", "setting": "KATO III cells [2]", "result": 32.7, "unit": "%"}, {"measurement": "population of apoptotic cells (early and late apoptotic cells)", "setting": "SNU-16 cells [3]", "result": 45.5, "unit": "%"}, {"measurement": "AUC(0-t)", "setting": "In vivo PK assay; [10]", "result": "763 ± 50.8", "unit": "ng·h/mL"}, {"measurement": "Cmax", "setting": "In vivo PK assay; [10]", "result": "461 ± 47.8", "unit": "ng/mL"}, {"measurement": "MRT", "setting": "In vivo PK assay; [10]", "result": "1.64 ± 0.19", "unit": "h"}, {"measurement": "half-life", "setting": "In vivo PK assay; [10]", "result": "1.58 ± 0.29", "unit": "h"}, {"measurement": "AUC(0-t)", "setting": "In vivo PK assay; [11]", "result": 1450, "unit": "ng·h/mL"}, {"measurement": "Cmax", "setting": "In vivo PK assay; [11]", "result": "235 ± 77.8", "unit": "ng/mL"}, {"measurement": "MRT", "setting": "In vivo PK assay; [11]", "result": "4.49 ± 1.19", "unit": "h"}, {"measurement": "Tmax", "setting": "In vivo PK assay; [11]", "result": "2.67 ± 2.89", "unit": "h"}, {"measurement": "half-life", "setting": "In vivo PK assay; [11]", "result": "2.83 ± 0.37", "unit": "h"}, {"measurement": "F% (oral relative bioavailability)", "setting": "In vivo PK assay; 30 mg/kg p.o", "result": 19.00, "unit": "%"}, {"measurement": "protein expression level of phosphorylated FGFR2 T653/T654", "setting": "[4]; KATO III, 0.1, 1, 5, 10, and 100 nM", "result": "decreased"}, {"measurement": "AKT and Erk phosphorylation levels", "setting": "[4]; KATO III", "result": "decreased"}, {"measurement": "FRS2 and PLCγ phosphorylation levels", "setting": "[4]; KATO III", "result": "significantly decreased"}, {"measurement": "protein expression level of phosphorylated FGFR2 T653/T654", "setting": "[5]; SNU-16, 0.1, 1, 5, 10, and 100 nM, 24 h", "result": "decreased"}, {"measurement": "AKT and Erk phosphorylation levels", "setting": "[5]; SNU-16, 24 h", "result": "decreased"}, {"measurement": "FRS2 and PLCγ phosphorylation levels", "setting": "[5]; SNU-16, 24 h", "result": "significantly decreased"}, {"measurement": "number of Edu-positive stained cells", "setting": "KATO III cells [6]", "result": "significantly decreased"}, {"measurement": "number of Edu-positive stained cells", "setting": "SNU-16 cells [7]", "result": "significantly decreased"}, {"measurement": "live cell numbers, prolonged administration", "setting": "KATO III cells [8]", "result": "suppressed"}, {"measurement": "live cell numbers, prolonged administration", "setting": "SNU-16 cells [9]", "result": "inhibited"}]}
